Source: ChEMBL document CHEMBL1131700, “Synthesis and biological evaluation of novel cryptophycin analogs with modification in the beta-alanine region” (Bioorg Med Chem Lett, 1999)

Organism: Mus musculus
Experiment: Compound was tested for its antitumor activity in murine pancreatic adenocarcinoma PO3 model at the maximum tolerated dose(MTD)
Format: functional
Conditions: not given

Compound	T/C [%]
COc1ccc(C[C@H]2NC(=O)/C=C/C[C@@H]([C@H](C)[C@H]3O[C@@H]3c3ccccc3)OC(=O)[C@H](CC(C)C)OC(=O)C(C)(C)CNC2=O)cc1Cl [CRYPTOPHYCIN 52]	< 5
COc1ccc(C[C@H]2NC(=O)/C=C/C[C@@H]([C@H](C)[C@H]3O[C@@H]3c3ccccc3)OC(=O)[C@H](CC(C)C)OC(=O)[C@H](C)CNC2=O)cc1Cl [CRYPTOPHYCIN A]	< 5

Organism: Homo sapiens
Experiment: Antiproliferative activity was evaluated by the 72 hr MTT cell viability assay using human colon carcinoma cells (GC3).
Format: functional
Conditions: Homo sapiens, MTT, 72 h

Compound	IC50 [nM]
COc1ccc(C[C@H]2NC(=O)/C=C/C[C@@H]([C@H](C)[C@H]3O[C@@H]3c3ccccc3)OC(=O)[C@H](CC(C)C)OC(=O)c3ccccc3NC2=O)cc1Cl	870
COc1ccc(C[C@H]2NC(=O)/C=C/C[C@@H]([C@H](C)[C@H]3O[C@@H]3c3ccccc3)OC(=O)[C@H](CC(C)C)OC(=O)C[C@@H](Cc3ccccc3)NC2=O)cc1Cl	5.2
COc1ccc(C[C@H]2NC(=O)/C=C/C[C@@H]([C@H](C)[C@H]3O[C@@H]3c3ccccc3)OC(=O)[C@H](CC(C)C)OC(=O)[C@H](Cc3ccccc3)NC2=O)cc1Cl	1000
COc1ccc(C[C@H]2NC(=O)/C=C/C[C@@H]([C@H](C)[C@H]3O[C@@H]3c3ccccc3)OC(=O)[C@H](CC(C)C)NC(=O)C[C@@H](C)NC2=O)cc1Cl	0.06
COc1ccc(C[C@H]2NC(=O)/C=C/C[C@@H]([C@H](C)[C@H]3O[C@@H]3c3ccccc3)OC(=O)[C@H](CC(C)C)OC(=O)C[C@@H](CC(C)C)NC2=O)cc1Cl	3
COc1ccc(C[C@H]2NC(=O)/C=C/C[C@@H]([C@H](C)[C@H]3O[C@@H]3c3ccccc3)OC(=O)[C@H](CC(C)C)OC(=O)[C@H](C(C)C)NC2=O)cc1Cl	306
COc1ccc(C[C@H]2NC(=O)/C=C/C[C@@H]([C@H](C)[C@H]3O[C@@H]3c3ccccc3)OC(=O)[C@H](CC(C)C)OC(=O)C(C)(C)CNC2=O)cc1Cl [CRYPTOPHYCIN 52]	0.2
COc1ccc(C[C@H]2NC(=O)/C=C/C[C@@H]([C@H](C)[C@H]3O[C@@H]3c3ccccc3)OC(=O)[C@H](CC(C)C)OC(=O)[C@H](C)CNC2=O)cc1Cl [CRYPTOPHYCIN A]	0.24
COc1ccc(C[C@H]2NC(=O)/C=C/C[C@@H]([C@H](C)[C@H]3O[C@@H]3c3ccccc3)OC(=O)[C@H](CC(C)C)OC(=O)C[C@@H](c3ccccc3)NC2=O)cc1Cl	0.94
COc1ccc(C[C@H]2NC(=O)/C=C/C[C@@H]([C@H](C)[C@H]3O[C@@H]3c3ccccc3)OC(=O)[C@H](CC(C)C)OC(=O)[C@@H]3CCCN3C2=O)cc1Cl	> 1500
COc1ccc(C[C@H]2NC(=O)/C=C/C[C@@H]([C@H](C)[C@H]3O[C@@H]3c3ccccc3)OC(=O)[C@H](CC(C)C)OC(=O)[C@@H]3CCCCC3NC2=O)cc1Cl (some centres not stated)	1.3
COc1ccc(C[C@H]2NC(=O)/C=C/C[C@@H]([C@H](C)[C@H]3O[C@@H]3c3ccccc3)OC(=O)[C@H](CC(C)C)OC(=O)[C@H](CC(C)C)NC2=O)cc1Cl	320
COc1ccc(C[C@H]2NC(=O)/C=C/C[C@@H]([C@H](C)[C@H]3O[C@@H]3c3ccccc3)OC(=O)[C@H](CC(C)C)OC(=O)[C@H](C)NC2=O)cc1Cl	13

Same assay, conditions: mtt

Compound	IC50 [nM]
COc1ccc(C[C@H]2NC(=O)/C=C/C[C@@H]([C@H](C)[C@H]3O[C@@H]3c3ccccc3)OC(=O)[C@H](CC(C)C)OC(=O)C[C@@H](C)NC2=O)cc1Cl (stereo in doubt; 12a)	0.4
COc1ccc(C[C@H]2NC(=O)/C=C/C[C@@H]([C@H](C)[C@H]3O[C@@H]3c3ccccc3)OC(=O)[C@H](CC(C)C)OC(=O)C[C@@H](C)NC2=O)cc1Cl (stereo in doubt; 12b)	0.03
